# Tests used:
# [1] = system: single-stranded materials; assay: Binding of drug to single strands; settings: under the conditions used
# Description: (§1) When methyl phosphonate and synthetic RNA were used, the purities of the crude oligonucleotides were taken to be about 30%, based on the data sheet prepared by the supplier. (The remainder comprised primarily truncated sequences.) Appropriate excess amounts of these agents were included in the reactions to ensure helix formation. The corresponding sense or antisense oligonucleotides were maintained at 0.075 μmol-P in the reaction. […] Unpurified materials were used in these preliminary studies because of the relatively high cost of purified oligoribonucleotides. The majority of the contributions to A260 for these samples should be due to material that was not duplexed.
# Salmon Sperm DNA = assay: Binding of drug to duplex (NACS column); settings: saturation; initial CC-1065/nucleotide 0.1; 37° C., 4 hr
# Procedure: (§2) Oligodeoxyribonucleotides were obtained by chemical synthesis through standard techniques on an automated synthesizer located in the Department of Veterinary Microbiology and Parasitology at Louisiana State University. Antisense MP and PS oligonucleotides were obtained from commercial sources, as was synthetic sense RNA. Poly(rA) was obtained from Sigma Chemical Co. CC-1065 was obtained from the Upjohn Company. Oligonucleotides (0.075 μmol-P each) were mixed in 0.36 ml 0.01 M Na cacodylate buffer, pH 7.2, with CC-1065 in dimethyl formamide (0.04 ml), or with dimethylformamide only. (Note that “μmol-P” denotes μmoles of phosphate; i.e., μmoles of nucleotide bases, rather than of oligonucleotides per se.) Incubations of complementary strands, with or without drug, were carried out at 37° C. for 4 hr. In the initial experiments, unbound drug was separated from nucleotide duplexes by ethanol precipitation. Equivalent results were obtained by trapping the oligonucleotides and CC-1065 on NACS-52 columns, and washing first with low-salt buffer and then with buffer containing 1M NaCl. […] Samples prepared in this manner could be directly used for determination of binding of the drug to the nucleic acid (as measured by the A365/A260 ratio), with the extinction of CC-1065 absorbance at 365 nm taken as 48,000, and the extinction of the nucleic acid absorption at 260 nm based on its composition. […]
# [2] = system: DNA sense (SEQ ID NO. 1) / DNA-MP antisense duplex (PO-MP); assay: Binding of drug to duplex (NACS column, A365/A260); design: species or system equine infectious anemia retrovirus; settings: for Final D/N (CC-1065/nucleotide) Bound to Duplex: PO-MP
# Procedure: (§3) Oligodeoxyribonucleotides were obtained by chemical synthesis through standard techniques on an automated synthesizer located in the Department of Veterinary Microbiology and Parasitology at Louisiana State University. Antisense MP and PS oligonucleotides were obtained from commercial sources, as was synthetic sense RNA. Poly(rA) was obtained from Sigma Chemical Co. CC-1065 was obtained from the Upjohn Company. Oligonucleotides (0.075 μmol-P each) were mixed in 0.36 ml 0.01 M Na cacodylate buffer, pH 7.2, with CC-1065 in dimethyl formamide (0.04 ml), or with dimethylformamide only. (Note that “μmol-P” denotes μmoles of phosphate; i.e., μmoles of nucleotide bases, rather than of oligonucleotides per se.) Incubations of complementary strands, with or without drug, were carried out at 37° C. for 4 hr. In the initial experiments, unbound drug was separated from nucleotide duplexes by ethanol precipitation. Equivalent results were obtained by trapping the oligonucleotides and CC-1065 on NACS-52 columns, and washing first with low-salt buffer and then with buffer containing 1M NaCl. Unbound CC-1065 was completely retained on the column. […] Samples prepared in this manner could be directly used for determination of binding of the drug to the nucleic acid (as measured by the A365/A260 ratio), with the extinction of CC-1065 absorbance at 365 nm taken as 48,000, and the extinction of the nucleic acid absorption at 260 nm based on its composition. Similar approaches were used with the drug U-71,184, with an assumed extinction of 32,000 at 365 nm.
# as §1
# (§4) Table 1 summarizes binding data obtained from incubations of CC-1065 with nucleotides at greater than stoichiometric levels; the levels used in these experiments were 1 drug molecule/10 nucleotide residues, which is equivalent to 4 drug molecules/20-mer duplex. […] There seemed to be no difference in drug binding between antisense oligonucleotides with a PO and those with a PS backbone. Again, the 5′-AGTTA-3′ sequence on the sense strand was presumably the primary target, and the 3′-AAGTA-5′ on the antisense probe was presumably the secondary target.
# [3] = system: DNA sense (SEQ ID NO. 1) / DNA-PS antisense duplex (PO-PS); assay: Binding of drug to duplex (NACS column, A365/A260); design: species or system equine infectious anemia retrovirus; settings: for Final D/N (CC-1065/nucleotide) Bound to Duplex: PO-PS
# Procedure: as §3, §1, §4
# [4] = system: DNA sense (SEQ ID NO. 1) / DNA-PO antisense (SEQ ID NO. 2) duplex (PO-PO); assay: Binding of drug to duplex (NACS column, A365/A260); design: species or system equine infectious anemia retrovirus; settings: for Final D/N (CC-1065/nucleotide) Bound to Duplex: PO-PO
# Procedure: as §3, §1, §4
# Poly(rA)-Oligo(dT) = assay: Binding of drug to duplex (NACS column, A365/A260); settings: for Final D/N (CC-1065/nucleotide) Bound to Duplex: Poly(rA)-Oligo(dT)
# Procedure: as §3, §1, §4
# Oligo(dA)-Oligo(dT) = assay: Binding of drug to duplex (NACS column, A365/A260); settings: for Final D/N (CC-1065/nucleotide) Bound to Duplex: Oligo(dA)-Oligo(dT)
# Procedure: as §3, §1, §4
# poly(dA)-poly(dT) = settings: reported, cited from earlier work
# [5] = system: RNA sense / DNA-PS antisense duplex; assay: Binding of drug to duplex (NACS column); design: species or system equine infectious anemia retrovirus; settings: saturation; initial CC-1065/nucleotide 0.1; 37° C., 4 hr
# Procedure: as §2
# [6] = system: RNA sense / DNA-PO antisense duplex; assay: Binding of drug to duplex (NACS column); design: species or system equine infectious anemia retrovirus; settings: saturation; initial CC-1065/nucleotide 0.1; 37° C., 4 hr
# Procedure: as §2
# [7] = system: DNA sense (SEQ ID NO. 1) / DNA-MP antisense duplex (PO-MP); assay: Duplex strand separation temperature (Tm); format: binding, equine infectious anemia retrovirus
# Procedure: (§5) Samples for determining Tm were also obtained by the above procedures. […] Thus the effects of this agent on Tm were carried out with Distamycin in solution with the duplexes tested.
# (§6) Tm's were determined on a Gilford 2400 Spectrophotometer set at 260 nm, with a 4-chamber Peltier-based temperature controller. Temperature was ramped linearly at 0.5° C./min. Absorbance data were acquired with a 12-bit A/D converter, and data were processed with Lotus 123W and SigmaPlot software. Tm values were determined from the plots as the midpoint of the thermal transitions.
# [8] = system: DNA sense (SEQ ID NO. 1) / DNA-PO antisense duplex (PO-PO); assay: Duplex strand separation temperature (Tm); format: binding, equine infectious anemia retrovirus
# Procedure: as §5, §6
# [9] = system: DNA sense (SEQ ID NO. 1) / DNA-PS antisense duplex; assay: Duplex strand separation temperature (Tm); format: binding, equine infectious anemia retrovirus
# Procedure: as §5, §6
# calf thymus DNA = settings: reported, cited from earlier work
# [10] = saturation, initial CC-1065/nucleotide 0.1, 37° C., 4 hr
# [11] = under the conditions of the experiment
compound,measurement,setting,value
COc1c(O)c2c(c3cc(C(=O)N4CCc5c4c(O)c(OC)c4[nH]c(C(=O)N6CC7CC78C6=CC(=O)c6[nH]cc(C)c68)cc54)[nH]c13)CCN2C(N)=O (centres unmarked) [CC-1065],Binding to single-stranded materials,[1],found not to bind to single-stranded materials
same,Approx. No. CC-1065 Bound/20 Base Pairs,Salmon Sperm DNA,~2
same,Estimate of drug bound per duplex by titration with a range of MP,[2]; MP antisense oligonucleotides,"# With MP antisense oligonucleotides, titration with a range of MP gave an estimate of 1 molecule bound per duplex. Precipitation with NaCl and EtOH gave similar results, but recoveries were lower. Single-strand components did not bind CC-1065."
same,Binding for MP antisense sequences,[2]; MP antisense sequences,about 1 drug molecule/duplex
same,Final D/N (CC-1065/nucleotide) Bound to Duplex,[2]; Initial D/N 0.025,0.016 ± 0.0008
same,Final D/N (CC-1065/nucleotide) Bound to Duplex,"[2]; Initial D/N 0.04, single determination",0.019^4
same,Final D/N (CC-1065/nucleotide) Bound to Duplex,[2]; Initial D/N 0.10,0.031 ± 0.001
same,Approx. No. CC-1065 Bound/20 Base Pairs,[2]; [10],~1
same,Final D/N (CC-1065/nucleotide) Bound to Duplex,[3]; Initial D/N 0.01,0.010 ± 0
same,Final D/N (CC-1065/nucleotide) Bound to Duplex,[3]; Initial D/N 0.025,0.024 ± 0.0005
same,Final D/N (CC-1065/nucleotide) Bound to Duplex,[3]; Initial D/N 0.04,0.032 ± 0.001
same,Final D/N (CC-1065/nucleotide) Bound to Duplex,[3]; Initial D/N 0.065,0.047 ± 0.0005
same,Final D/N (CC-1065/nucleotide) Bound to Duplex,[3]; Initial D/N 0.10,0.049 ± 0
same,Approx. No. CC-1065 Bound/20 Base Pairs,[3]; [10],~2
same,Final D/N (CC-1065/nucleotide) Bound to Duplex,[4]; Initial D/N 0.01,0.009 ± 0.0004
same,Final D/N (CC-1065/nucleotide) Bound to Duplex,[4]; Initial D/N 0.025,0.021 ± 0.001
same,Final D/N (CC-1065/nucleotide) Bound to Duplex,[4]; Initial D/N 0.04,0.030 ± 0.0004
same,Final D/N (CC-1065/nucleotide) Bound to Duplex,[4]; Initial D/N 0.065,0.049 ± 0.001
same,Final D/N (CC-1065/nucleotide) Bound to Duplex,[4]; Initial D/N 0.10,0.053 ± 0.002
same,Approx. No. CC-1065 Bound/20 Base Pairs,"[4]; saturation, initial CC-1065/nucleotide 0.1 (4 drug molecules per duplex), 37° C., 4 hr",~2
same,Final D/N (CC-1065/nucleotide) Bound to Duplex,Poly(rA)-Oligo(dT); Initial D/N 0.01,0.003 ± 0.002
same,Final D/N (CC-1065/nucleotide) Bound to Duplex,Poly(rA)-Oligo(dT); Initial D/N 0.025,0.008 ± 0.004
same,Final D/N (CC-1065/nucleotide) Bound to Duplex,Poly(rA)-Oligo(dT); Initial D/N 0.04,0.011 ± 0.004
same,Final D/N (CC-1065/nucleotide) Bound to Duplex,Poly(rA)-Oligo(dT); Initial D/N 0.065,0.022 ± 0.004
same,Final D/N (CC-1065/nucleotide) Bound to Duplex,Poly(rA)-Oligo(dT); Initial D/N 0.10,0.028 ± 0.001
same,Approx. No. CC-1065 Bound/20 Base Pairs,Poly(rA)-Oligo(dT); [10],~1
same,Final D/N (CC-1065/nucleotide) Bound to Duplex,Oligo(dA)-Oligo(dT); Initial D/N 0.01,0.008 ± 0.001
same,Final D/N (CC-1065/nucleotide) Bound to Duplex,Oligo(dA)-Oligo(dT); Initial D/N 0.025,0.018 ± 0.0006
same,Final D/N (CC-1065/nucleotide) Bound to Duplex,Oligo(dA)-Oligo(dT); Initial D/N 0.04,0.028 ± 0.006
same,Final D/N (CC-1065/nucleotide) Bound to Duplex,Oligo(dA)-Oligo(dT); Initial D/N 0.065,0.058 ± 0.002
same,Final D/N (CC-1065/nucleotide) Bound to Duplex,Oligo(dA)-Oligo(dT); Initial D/N 0.10,0.063 ± 0.002
same,Approx. No. CC-1065 Bound/20 Base Pairs,Oligo(dA)-Oligo(dT); [10],~2.5
same,Tm,poly(dA)-poly(dT); CC-1065 bound,~100 °C
same,Increase in Tm,poly(dA)-poly(dT); [11],over 30 °C
same,Approx. No. CC-1065 Bound/20 Base Pairs,[5],~1
same,Approx. No. CC-1065 Bound/20 Base Pairs,[6],~1
same,Tm,[7]; CC-1065 initial D/N = 0.025,73.0 ± 2.0^4 °C
same,Tm,[7]; CC-1065 initial D/N = 0.1,74.0 ± 1.0^4 °C
same,Duplex Strand Separation Temperature,"[7]; DNA / DNA-MP, drug-bound duplex (Table 6)",74.0 ± 1.04
same,Tm Elevation,"[7]; PO-MP, highest level of binding obtained",21.5 °C
same,Tm,"[8]; CC-1065 initial D/N = 0.025, 1M NaCl eluate",81.7 ± 0.6^4 °C
same,Tm,"[8]; CC-1065 initial D/N = 0.1, minimum Tm estimate (melting not completed)","≥ 85.3 ± 2.3^4,5 °C"
same,Duplex Strand Separation Temperature,"[8]; DNA / DNA-PO, drug-bound duplex (Table 6)",≥ 85.3 ± 2.3^4
same,Tm Elevation,"[8]; PO-PO, highest level of binding obtained",17.3 °C
same,Tm,[9]; CC-1065 initial D/N = 0.025,81.3 ± 2.3^4 °C
same,Tm,"[9]; CC-1065 initial D/N = 0.1, minimum Tm estimate","≥ 84.7 ± 1.5^4,5 °C"
same,Duplex Strand Separation Temperature,"[9]; DNA / DNA-PS, drug-bound duplex (Table 6)",≥ 84.7 ± 1.5^4
same,Tm Elevation,"[9]; PS-PS, highest level of binding obtained",20.5 °C
same,Tm,calf thymus DNA; CC-1065 bound,~100 °C
same,Increase in Tm,calf thymus DNA; [11],over 30 °C

# Source: USRE38169E1, “Hyperstabilizing antisense nucleic acid binding agents” (priority 1993, dated 2003)
